According to patent publication US9725437B2, “Fatty acid synthase inhibitors” (GlaxoSmithKline Intellectual Property (No.2) Limited, priority 2013, dated 2017):

Columns and labels:
[1] = Rat pharmacokinetic study (iv clearance, oral exposure); assay type: in vivo; details: for Rat iv CI: in vivo clearance, average of 1 to 4 animals; for Rat po DNAUC: dose-normalized AUC, 2-3 animals per experiment
Method: (§1) Mouse and rat pharmacokinetic studies were performed generally as described in Xiang et al. (Preclinical drug metabolism and pharmacokinetic evaluation of GW844520, a novel mitochondrial electron transport inhibitor. H Xiang, J McSurdy-Freed, G Subbanagounder, E Hugger, R Bambal, C Han, S Ferrar, D Gargallo and CB Davis. (2006) Journal of Pharmaceutical Sciences, 95:2657-2672) and Davis et al. (Comparative preclinical drug metabolism and pharmacokinetic evaluation of novel 4-aminoquinoline anti-malarials. C B Davis, R Bambal, G S Moorthy, E Hugger, H Xiang, B Kevin Park, A E Shone, P M O'Neill and S A Ward (2009) Journal of Pharmaceutical Sciences, 98:362-377) with the following exceptions. For some mouse studies, cannulated animals were used and serial blood samples were collected from the individuals (n=2/compound/route of administration) as opposed to using a composite study design. In some iv rat studies, drugs were infused for 1 or 2 h and a single blood sample collected to estimate clearance assuming steady-state conditions (n=2/compound). This assay was employed as an initial PK screen to prioritize compounds for further study.
(§2) Rodent pharmacokinetic (PK) data were collected on the exemplified compounds according to the methods described above. In vivo clearance (Cl) data are reported as the average of 1 to 4 animals across 1 to 2 experiments and are categorized as follows. In rats, a ‘low’ clearance is designated as <17 mL/min/kg, a ‘moderate’ clearance is designated as 17-39 mL/min/kg, and a ‘high’ clearance is designated as >39 mL/min/kg. In mice, a ‘low’ clearance is designated as <30 mL/min/kg, a ‘moderate’ clearance is designated as 30-70 mL/min/kg, and a ‘high’ clearance is designated as >70 mL/min/kg. In vivo oral exposure (po) data, reported as average dose-normalized AUCs (DNAUC) per experiment of 2-3 animals, are categorized as ‘poor’ for DNAUC ≦101 ng·h/mL/mg/kg and ‘good’ for DNAUC >101 ng·h/mL/mg/kg. When multiple experiments were performed under different conditions, the totality of the data was considered. In cases where both ‘poor’ and ‘good’ oral exposures were observed, a designation of ‘mixed’ is utilized to represent mixed and unoptimized results.

[2] = Mouse pharmacokinetic study (iv clearance, oral exposure); assay type: in vivo; set-up: key to Mouse po DNAUC: ‘poor’ for DNAUC ≦101 ng·h/mL/mg/kg; ‘good’ for DNAUC >101 ng·h/mL/mg/kg; In cases where both ‘poor’ and ‘good’ oral exposures were observed, a designation of ‘mixed’ is utilized; details: for Mouse iv CI: in vivo clearance, average of 1 to 4 animals; for Mouse po DNAUC: dose-normalized AUC, 2-3 animals per experiment
Method: as §1, §2

SMILES	Rat iv CI [1]	Rat po DNAUC [1]	Mouse iv CI [2]	Mouse po DNAUC [2]
CCC(=O)N1CC[C@@H](Cc2n[nH]c(=O)n2-c2ccc(-c3ccc4cc(Cl)cnc4c3)cc2F)C1 [Example 6, (S)-4-(4-(3-chloroquinolin-7-yl)-2-fluorophenyl)-3-((1-propionylpyrrolidin-3-yl)methyl)-1H-1,2,4-triazol-5(4H)-one]	moderate (a ‘moderate’ clearance is designated as 17-39 mL/min/kg)	good (‘good’ for DNAUC >101 ng·h/mL/mg/kg)	low (In mice, a ‘low’ clearance is designated as <30 mL/min/kg)	mixed
Cc1cnc2cc(-c3ccc(-n4c(C[C@@H]5CCN(C(=O)C6CC6)C5)n[nH]c4=O)c(F)c3)ccc2c1 [Example 1, (S)-3-((1-(cyclopropanecarbonyl)pyrrolidin-3-yl)methyl)-4-(2-fluoro-4-(3-methylquinolin-7-yl)phenyl)-1H-1,2,4-triazol-5(4H)-one]	moderate (a ‘moderate’ clearance is designated as 17-39 mL/min/kg)	poor (‘poor’ for DNAUC ≦101 ng·h/mL/mg/kg)	low (In mice, a ‘low’ clearance is designated as <30 mL/min/kg)	good (‘good’ for DNAUC >101 ng·h/mL/mg/kg)
CCC(=O)N1CC[C@@H](Cc2nn(C)c(=O)n2-c2ccc(-c3ccc4cc(C)cnc4c3)cc2F)C1 [Example 7, (S)-4-(2-fluoro-4-(3-methylquinolin-7-yl)phenyl)-1-methyl-3-((1-propionylpyrrolidin-3-yl)methyl)-1H-1,2,4-triazol-5(4H)-one]	low (In rats, a ‘low’ clearance is designated as <17 mL/min/kg)	good (‘good’ for DNAUC >101 ng·h/mL/mg/kg)	low (In mice, a ‘low’ clearance is designated as <30 mL/min/kg)	good (‘good’ for DNAUC >101 ng·h/mL/mg/kg)
CCC(=O)N1CC[C@@H](Cc2nn(C)c(=O)n2-c2ccc(-c3ccc4cc(F)cnc4c3)cc2F)C1 [Example 10, (S)-4-(2-fluoro-4-(3-fluoroquinolin-7-yl)phenyl)-1-methyl-3-((1-propionylpyrrolidin-3-yl)methyl)-1H-1,2,4-triazol-5(4H)-one]	low (In rats, a ‘low’ clearance is designated as <17 mL/min/kg)		low (In mice, a ‘low’ clearance is designated as <30 mL/min/kg)	
O=C(C1CC1)N1CC[C@@H](Cc2n[nH]c(=O)n2-c2ccc(-c3ccc4cc(F)cnc4c3)cc2F)C1 [Example 3, (S)-3-((1-(cyclopropanecarbonyl)pyrrolidin-3-yl)methyl)-4-(2-fluoro-4-(3-fluoroquinolin-7-yl)phenyl)-1H-1,2,4-triazol-5(4H)-one]	moderate (a ‘moderate’ clearance is designated as 17-39 mL/min/kg)			
CCC(=O)N1CC[C@@H](Cc2n[nH]c(=O)n2-c2ccc(-c3ccc4cccnc4c3)cc2F)C1 [#196 from WO2011/103546A1, 4-[2-fluoro-4-(7-quinolinyl)phenyl]-5-{[(3S)-1-propanoyl-3-pyrrolidinyl]methyl}-2,4-dihydro-3H-1,2,4-triazol-3-one, reference compound]	moderate (a ‘moderate’ clearance is designated as 17-39 mL/min/kg)	poor (‘poor’ for DNAUC ≦101 ng·h/mL/mg/kg)	moderate (a ‘moderate’ clearance is designated as 30-70 mL/min/kg)	poor (‘poor’ for DNAUC ≦101 ng·h/mL/mg/kg)
CCC(=O)N1CC[C@@H](Cc2nn(C)c(=O)n2-c2ccc(-c3ccc4cc(Cl)cnc4c3)cc2F)C1 [Example 8, (S)-4-(4-(3-chloroquinolin-7-yl)-2-fluorophenyl)-1-methyl-3-((1-propionylpyrrolidin-3-yl)methyl)-1H-1,2,4-triazol-5(4H)-one]	low (In rats, a ‘low’ clearance is designated as <17 mL/min/kg)	good (‘good’ for DNAUC >101 ng·h/mL/mg/kg)	low (In mice, a ‘low’ clearance is designated as <30 mL/min/kg)	good (‘good’ for DNAUC >101 ng·h/mL/mg/kg)
CCC(=O)N1CC[C@@H](Cc2n[nH]c(=O)n2-c2ccc(-c3ccc4cc(F)cnc4c3)cc2F)C1 [Example 4, (S)-4-(2-fluoro-4-(3-fluoroquinolin-7-yl)phenyl)-3-((1-propionylpyrrolidin-3-yl)methyl)-1H-1,2,4-triazol-5(4H)-one]	low (In rats, a ‘low’ clearance is designated as <17 mL/min/kg)	poor (‘poor’ for DNAUC ≦101 ng·h/mL/mg/kg)	low (In mice, a ‘low’ clearance is designated as <30 mL/min/kg)	good (‘good’ for DNAUC >101 ng·h/mL/mg/kg)
O=C(C1CC1)N1CC[C@@H](Cc2n[nH]c(=O)n2-c2ccc(-c3ccc4cccnc4c3)cc2F)C1 [#124 from WO2011/103546A1, 5-{[(3S)-1-(cyclopropylcarbonyl)-3-pyrrolidinyl]methyl}-4-[2-fluoro-4-(7-quinolinyl)phenyl]-2,4-dihydro-3H-1,2,4-triazol-3-one, reference compound]	high (a ‘high’ clearance is designated as >39 mL/min/kg)	poor (‘poor’ for DNAUC ≦101 ng·h/mL/mg/kg)	moderate (a ‘moderate’ clearance is designated as 30-70 mL/min/kg)	poor (‘poor’ for DNAUC ≦101 ng·h/mL/mg/kg)
O=C(C1CC1)N1CC[C@@H](Cc2n[nH]c(=O)n2-c2ccc(-c3ccc4cc(Cl)cnc4c3)cc2F)C1 [Example 2, (S)-4-(4-(3-chloroquinolin-7-yl)-2-fluorophenyl)-3-((1-(cyclopropanecarbonyl)pyrrolidin-3-yl)methyl)-1H-1,2,4-triazol-5(4H)-one]	moderate (a ‘moderate’ clearance is designated as 17-39 mL/min/kg)	good (‘good’ for DNAUC >101 ng·h/mL/mg/kg)	low (In mice, a ‘low’ clearance is designated as <30 mL/min/kg)	good (‘good’ for DNAUC >101 ng·h/mL/mg/kg)
Cn1nc(C[C@@H]2CCN(C(=O)C3CC3)C2)n(-c2ccc(-c3ccc4cc(Cl)cnc4c3)cc2F)c1=O [Example 9, (S)-4-(4-(3-chloroquinolin-7-yl)-2-fluorophenyl)-3-((1-(cyclopropanecarbonyl)pyrrolidin-3-yl)methyl)-1-methyl-1H-1,2,4-triazol-5(4H)-one]	moderate (a ‘moderate’ clearance is designated as 17-39 mL/min/kg)	good (‘good’ for DNAUC >101 ng·h/mL/mg/kg)	low (In mice, a ‘low’ clearance is designated as <30 mL/min/kg)	
CCC(=O)N1CC[C@@H](Cc2n[nH]c(=O)n2-c2ccc(-c3ccc4cc(C)cnc4c3)cc2F)C1 [Example 5, (S)-4-(2-fluoro-4-(3-methylquinolin-7-yl)phenyl)-3-((1-propionylpyrrolidin-3-yl)methyl)-1H-1,2,4-triazol-5(4H)-one]	low (In rats, a ‘low’ clearance is designated as <17 mL/min/kg)	good (‘good’ for DNAUC >101 ng·h/mL/mg/kg)	low (In mice, a ‘low’ clearance is designated as <30 mL/min/kg)	mixed
